Values after ≈ are worked out from the molar mass of the structure shown. Active and inactive are the calls of the source. The calls are words filed in the database; no cut-off is given here.
Legend:
Escherichia coli [1] = assay: Antibacterial activity against gentamicin-treated internalized Escherichia coli isolate HM580 in mouse J774A1 cells isolated from colonic mucosal biopsies of patient with Crohn's disease assessed as intracellular killing of bacteria at 10% compound Cmax after 3 hrs; assay type: functional, J774.A1
Escherichia coli [2] = assay: Antibacterial activity against Escherichia coli isolate HM154 isolated from colonic mucosal biopsies of patient with Crohn's disease after 24 hrs by Etest antibiotic concentration gradient method; assay type: functional; details: isolate HM154, 24 h
Escherichia coli [3] = assay: Antibacterial activity against Escherichia coli isolate HM95 isolated from ileal mucosal biopsies of patient with Crohn's disease after 24 hrs by Etest antibiotic concentration gradient method; assay type: functional; details: isolate HM95, 24 h
Escherichia coli [4] = assay: Antibacterial activity against gentamicin-treated internalized Escherichia coli isolate HM605 in mouse J774A1 cells isolated from colonic mucosal biopsies of patient with Crohn's disease assessed as intracellular killing of bacteria at 10% compound Cmax after 3 hrs; assay type: functional, J774.A1
J774.A1 = assay: Cytotoxicity against mouse J774A1 cells assessed as release of adenylate kinase at 100 ug/ml after 3 hrs […] relative to control; assay type: cell-based; details: j774.a1, 3 h
Escherichia coli [5] = assay: Antibacterial activity against Escherichia coli isolate HM580 isolated from colonic mucosal biopsies of patient with Crohn's disease after 24 hrs by Etest antibiotic concentration gradient method; assay type: functional; details: isolate HM580, 24 h
Escherichia coli [6] = assay: Antibacterial activity against mucosa-associated Escherichia coli isolate HM484 isolated from patient with irritable bowel syndrome or sporadic polyps after 24 hrs by Etest antibiotic concentration gradient method; details: isolate HM484, 24 h
Escherichia coli [7] = assay: Antibacterial activity against mucosa-associated Escherichia coli isolate HM456 isolated from patient with irritable bowel syndrome or sporadic polyps after 24 hrs by Etest antibiotic concentration gradient method; assay type: functional; details: isolate HM456, 24 h
Escherichia coli [8] = assay: Antibacterial activity against mucosa-associated Escherichia coli isolate HM454 isolated from patient with irritable bowel syndrome or sporadic polyps after 24 hrs by Etest antibiotic concentration gradient method; assay type: functional; details: isolate HM454, 24 h
Escherichia coli [9] = assay: Antibacterial activity Escherichia coli isolate HM419 isolated from ileo-colonic mucosal biopsies of patient with Crohn's disease after 24 hrs by Etest antibiotic concentration gradient method; assay type: functional; details: isolate HM419, 24 h
Escherichia coli [10] = assay: Antibacterial activity against mucosa-associated Escherichia coli isolate HM488 isolated from patient with irritable bowel syndrome or sporadic polyps after 24 hrs by Etest antibiotic concentration gradient method; details: isolate HM488, 24 h
Escherichia coli [11] = assay: Antibacterial activity Escherichia coli isolate HM413 isolated from ileo-colonic mucosal biopsies of patient with Crohn's disease after 24 hrs by Etest antibiotic concentration gradient method; assay type: functional; details: isolate HM413, 24 h
Escherichia coli [12] = assay: Antibacterial activity against extracellular Escherichia coli isolate HM605 isolated from colonic mucosal biopsies of patient with Crohn's disease at 0.01 to 10 ug/ml after 3 hrs; assay type: functional, organism-based
Escherichia coli [13] = assay: Antibacterial activity against Escherichia coli isolate HM605 isolated from colonic mucosal biopsies of patient with Crohn's disease
Escherichia coli [14] = assay: Antibacterial activity against mucosa-associated Escherichia coli isolate HM428 isolated from patient with irritable bowel syndrome or sporadic polyps after 24 hrs by Etest antibiotic concentration gradient method; assay type: functional; details: isolate HM428, 24 h
Escherichia coli [15] = assay: Antibacterial activity against Escherichia coli isolate LF82 isolated from colonic mucosal biopsies of patient with Crohn's disease after 24 hrs by Etest antibiotic concentration gradient method; details: isolate LF82, 24 h
Escherichia coli [16] = assay: Antibacterial activity against gentamicin-treated internalized Escherichia coli isolate LF82 in mouse J774A1 cells isolated from chronic ileal lesions of patient with Crohn's disease assessed as intracellular killing of bacteria at 10% compound Cmax after 3 hrs; assay type: functional, J774.A1
Escherichia coli [17] = assay: Antibacterial activity against mucosa-associated Escherichia coli isolate HM463 isolated from patient with irritable bowel syndrome or sporadic polyps after 24 hrs by Etest antibiotic concentration gradient method; details: isolate HM463, 24 h
Escherichia coli [18] = assay: Antibacterial activity against Escherichia coli isolate HM615 isolated from colonic mucosal biopsies of patient with Crohn's disease after 24 hrs by Etest antibiotic concentration gradient method; assay type: functional; details: isolate HM615, 24 h
Escherichia coli [19] = assay: Antibacterial activity against gentamicin-treated internalized Escherichia coli isolate HM615 in mouse J774A1 cells isolated from colonic mucosal biopsies of patient with Crohn's disease assessed as intracellular killing of bacteria at 10% compound Cmax after 3 hrs; assay type: functional, J774.A1

**Q.** Which Activity (Escherichia coli [1]) does the source give for `O=C(O)c1cn(C2CC2)c2cc(N3CCNCC3)c(F)cc2c1=O` [CIPROFLOXACIN] here?
**A.** 90.4%

**Q.** And the MIC (Escherichia coli [2])?
**A.** ≤ 1 µg/mL

**Q.** And the MIC (Escherichia coli [3])?
**A.** ≤ 1 µg/mL

**Q.** And the Activity (Escherichia coli [4])?
**A.** 86%

**Q.** What about the Activity (J774.A1) of the same compound?
**A.** 90%

**Q.** And the MIC (Escherichia coli [5])?
**A.** ≤ 1 µg/mL

**Q.** What about the MIC (Escherichia coli [6]) of the same compound?
**A.** ≤ 1 µg/mL

**Q.** And the MIC (Escherichia coli [7])?
**A.** ≤ 1 µg/mL

**Q.** What about the MIC (Escherichia coli [8]) of the same compound?
**A.** ≤ 1 µg/mL

**Q.** What about the MIC (Escherichia coli [9]) of the same compound?
**A.** ≤ 1 µg/mL

**Q.** What about the MIC (Escherichia coli [10]) of the same compound?
**A.** ≤ 1 µg/mL

**Q.** And the MIC (Escherichia coli [11])?
**A.** ≤ 1 µg/mL

**Q.** What about the Activity (Escherichia coli [12]) of the same compound?
**A.** Active

**Q.** What about the MBC (Escherichia coli [13]) of the same compound?
**A.** 0.3 µg/mL (≈ 0.905 µM)

**Q.** And the MIC (Escherichia coli [14])?
**A.** ≤ 1 µg/mL

**Q.** And the MIC (Escherichia coli [15])?
**A.** ≤ 1 µg/mL

**Q.** And the Activity (Escherichia coli [16])?
**A.** 87.6%

**Q.** And the MIC (Escherichia coli [17])?
**A.** ≤ 1 µg/mL

**Q.** And the MIC (Escherichia coli [18])?
**A.** ≤ 1 µg/mL

**Q.** What about the Activity (Escherichia coli [19]) of the same compound?
**A.** 83.8%

Source: ChEMBL document CHEMBL1151474, “Replication of Colonic Crohn's Disease Mucosal Escherichia coli Isolates within Macrophages and Their Susceptibility to Antibiotics” (Antimicrob Agents Chemother, 2008)
